The values that follow come from patent US5534497A, “Technetium chelates to be used for determining the renal function” (Mallinckrodt Medical, Inc., priority 1986, dated 1996).

For series [1] the following is noted: background statement; cited from earlier work.
Series [2] is described as follows: Biodistribution in mice by organ uptake measurements, relative to Tc99m-MAG3 (iodo-131-Hippuran as reference standard). The format is in vivo. The settings on record: for Blood: ratio of uptake of compound to uptake of Tc99m-MAG3 / Hepatic (system): ratio of uptake of compound to uptake of Tc99m-MAG3 / Intestines: ratio of uptake of compound to uptake of Tc99m-MAG3 / Kidneys: ratio of uptake of compound to uptake of Tc99m-MAG3 / Liver: ratio of uptake of compound to uptake of Tc99m-MAG3 / Remainder / Rest of the body: ratio of uptake of compound to uptake of Tc99m-MAG3 / Renal (system): ratio of uptake of compound to uptake of Tc99m-MAG3 / Stomach: ratio of uptake of compound to uptake of Tc99m-MAG3 / Urine: ratio of uptake of compound to uptake of Tc99m-MAG3: intravenous, 10 minutes after administration, each normalised to iodo-131-Hippuran; for Secretion characteristics / organ distribution compared with Tc99m-MAG3 (in words): secretion in urine, retention in kidneys, liver, intestines. The method, then: Tc99m-MAGAG-DA, separated by HPLC, is diluted with physiological saline solution to a concentration of 370 kilobecquerel per mi. Iodo-131-Hippuran is added to this solution as a reference standard. An amount of 0.1 ml of this mixture is injected intravenously into each of the eight mice, so that 37 kilobecquerel of Tc99m-MAGAG-DA and 18.5 kilobecquerel of iodo-131-Hippuran are injected per animal. Measures are taken to collect all the excreted urine. 10 Minutes after the administration the mice are sacrificed. It is ensured that all the blood is collected. All parts of the body are brought in separate tubes and the activity of Tc99m and I131 is determined for each part of the body. From the measured results the relative quantity of both tracer products in urine, kidneys, intestines. liver, blood and the collective remainder of the body is computed. In the same manner, Tc99m-MAGA-DB, separated by HPLC, and Tc99m-mercaptoacetylglycylglycylglycine (Tc99m-MAG3), purified by HPLC, both with iodo-131-Hippuran as a reference standard, are tested in two other groups of 8 and 6 mice, respectively. For all three Tc99m-labelled compounds -- MAGAG-DA, MAGAG-DB and MAG3 -- the relative percentages of Tc99m activity in the various organs are calculated with respect to iodo-131-Hippuran. After this, the ratios of Tc99m-MAGAG-DA and -DB can be calculated with respect to Tc99m-MAG3 in the various organs.
In the same ray as described in Example III the biodistribution of the above compound in mice is determined relative to that of Tc99m-MAG3 by organ uptake measurements.
In the same way as described in Example III the biodistribution of the above compound in mice is determined relative to that of Tc99m-MAG3 by organ uptake measurements.

The conditions of series [3]: glomerular filtration about 125 ml per minute, total renal clearance 600 to 700 ml per minute; cited from earlier work.

Consider `O=C([O-])CNC(=O)c1ccccc1[131I].[Na+]` [iodo-131-Hippuran], for which the “Secretion by the kidneys (in words)” value in series [1] is “secreted actively tubularly”.

“Tc99m-mercaptoacetylglycyl-D-alanylglycine [Tc99m-MAGAG-DA]”: in series [2], the “Blood: ratio of uptake of compound to uptake of Tc99m-MAG3” value (“Blood: ratio of uptake of compound” for short) came to 1.12, the “Hepatic (system): ratio of uptake of compound to uptake of Tc99m-MAG3” value (shortened to “Hepatic (system): ratio”) was 0.60, the “Intestines: ratio of uptake of compound to uptake of Tc99m-MAG3” value (“Intestines: ratio of uptake of compound” for short) is on record as 0.44 and the “Kidneys: ratio of uptake of compound to uptake of Tc99m-MAG3” value (“Kidneys: ratio of uptake of compound” below) is recorded as 0.36. Further, in series [2], the “Liver: ratio of uptake of compound to uptake of Tc99m-MAG3” value (“Liver: ratio of uptake of compound” below) is 0.68, the “Remainder / Rest of the body: ratio of uptake of compound to uptake of Tc99m-MAG3” value was 0.90, the “Renal (system): ratio of uptake of compound to uptake of Tc99m-MAG3” value (from here on “Renal (system): ratio”) was determined as 1.05 and the “Stomach: ratio of uptake of compound to uptake of Tc99m-MAG3” value (from here on “Stomach: ratio of uptake of compound”) is on record as 0.83. For the same compound, in series [2], the “Urine: ratio of uptake of compound to uptake of Tc99m-MAG3” value (“Urine: ratio of uptake of compound” for short) is 1.13 and the “Secretion characteristics / organ distribution compared with Tc99m-MAG3 (in words)” value is on record as “significantly better than those of Tc99m-MAG3”.

For the compound “Tc99m-mercaptoacetylglycylglycylglycine [Tc99m-MAG3]”, the “Secretion by the kidneys (in words)” value in series [1] was “secreted by the kidneys selectively and slightly faster than iodo-Hippuran”.

Consider “Tc99m-mercaptoacetylglycyl-D-alanylglycine [Tc99m-MAGAG-DB]”, for which, in series [2], the “Blood: ratio of uptake of compound” value was 1.20, the “Hepatic (system): ratio” value amounted to 0.59, the “Intestines: ratio of uptake of compound” value is 0.41 and the “Kidneys: ratio of uptake of compound” value came to 0.37. For the same compound, in series [2], the “Liver: ratio of uptake of compound” value is 0.68, the “Remainder / Rest of the body: ratio of uptake of compound to uptake of Tc99m-MAG3” value is 0.94, the “Renal (system): ratio” value is recorded as 1.07 and the “Stomach: ratio of uptake of compound” value turned out to be 0.85. In series [2], the “Urine: ratio of uptake of compound” value came to 1.14 and the “Secretion characteristics / organ distribution compared with Tc99m-MAG3 (in words)” value is reported as “significantly better than those of Tc99m-MAG3”.

Turning to `O=C([O-])CN(CCN(CC(=O)[O-])CC(=O)[O-])CCN(CC(=O)[O-])CC(=O)[O-].[99Tc+4]` [chelate of DTPA, Tc99m-diethylene triamine pentascetic acid], the clearance in series [3] is 100 ml of blood plasma per minute.

Take “Tc99m-mercaptoacetyl-D-alanylglycylglycine [Tc99m-MAAG2-DB]”: in series [2], the “Blood: ratio of uptake of compound” value turned out to be 1.17, the “Hepatic (system): ratio” value is reported as 0.84, the “Intestines: ratio of uptake of compound” value is recorded as 0.95 and the “Kidneys: ratio of uptake of compound” value is recorded as 0.66. Moreover, in series [2], the “Liver: ratio of uptake of compound” value is on record as 0.79, the “Remainder / Rest of the body: ratio of uptake of compound to uptake of Tc99m-MAG3” value is 1.45, the “Renal (system): ratio” value was 0.96 and the “Stomach: ratio of uptake of compound” value turned out to be 1.40. Also, in series [2], the “Urine: ratio of uptake of compound” value was found to be 0.99 and the “Secretion characteristics / organ distribution compared with Tc99m-MAG3 (in words)” value is reported as “more favourable organ distribution than Tc99m-MAG3”.
